Values after ≈ are worked out from the molar mass of the structure shown.
Experiments:
[1] = tested on: P. falciparum K1 strain (Thailand resistant to chloroquine); assay: semiautomated microdilution assay, [3H]-hypoxanthine incorporation, K1 strain; type: cell-based, Plasmodium falciparum; conditions: K1 strain, 72 h incubation
In short: (§1)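 IC50 values come from logit regression of semiautomated microdilution data obtained on intraerythrocytic parasites drawn from asynchronous cultures.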

[2] = tested on: P. falciparum NF54 strain (sensitive to standard antimalarials); assay: semiautomated microdilution assay, [3H]-hypoxanthine incorporation, NF54 strain; type: cell-based, Plasmodium falciparum; conditions: NF54 strain, 72 h incubation
In short: as §1

[3] = tested on: ANKA strain of P. berghei; assay: single dose STI in vivo screen in infected mice; parameters: species or system Plasmodium berghei; conditions: for Activity (%) po / Activity (%) sc / Activity (%) SSVpo: percent reduction in parasitemia day 3 post-infection, mice; for Activity (%) po / Survival (days) po: single 10 mg/kg po in 3% ethanol and 7% Tween 80; for Activity (%) sc / Survival (days) sc: single 10 mg/kg sc in 3% ethanol and 7% Tween 80; for Activity (%) SSVpo: single po dose in standard suspending vehicle (SSV); for Survival (days) po / Survival (days) sc / Survival (days) SSVpo: untreated control 5.6 ± 0.3; for Survival (days) SSVpo: single po dose in SSV
In short: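 Groups of 3-5 Moro SPF or NMRI mice infected with the ANKA strain of P. berghei received a single dose of trioxolane on day one post-infection. The compound was given in 3% ethanol and 7% Tween 80 or in SSV (0.5% w/v CMC, 0.5% v/v benzyl alcohol, 0.4% v/v Tween 80, 0.9% w/v sodium chloride in water). Antimalarial activity was scored as percent reduction in parasitemia on day three and as survival time versus untreated controls. Survival to day 30 counted as cure.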

[4] = tested on: Schistosoma mansoni 21-day-old schistosomules; assay: effect on 21-day-old schistosomules in mice; type: in vivo; conditions: single 200 mg/kg per os, female mice
Experimental: All groups were killed 4 weeks after treatment and the liver and intestine were removed and separated. The liver and intestine were compressed and alive male and female worms could be seen and counted. The effect of the compounds was evaluated by mean total and female worm burden.

[5] = tested on: Schistosoma mansoni adult schistosomes (49-day-old); assay: effect on adult schistosomes (49-day-old) in mice; type: in vivo; conditions: single 400 mg/kg per os
Experimental: Mice were infected with 100 Schistosoma mansoni cercariae […]. Each group was treated per os with OZ compounds at single doses of 200, 400, and 600 mg/kg. […] All groups were killed 4 weeks after treatment and the liver and intestine were removed and separated. The liver and intestine were compressed and alive male and female worms could be seen and counted.

Compound | IC50 (ng/ml) K1 [1] | IC50 (ng/ml) NF54 [2] | Activity (%) po [3] | Activity (%) sc [3] | Activity (%) SSVpo [3] | Survival (days) po [3] | Survival (days) sc [3] | Survival (days) SSVpo [3] | % reduction of schistosomule growth at day 21 after per os application of 200 mg/kg, FWR (%) [4] | % reduction of schistosomule growth at day 21 after per os application of 200 mg/kg, TWR (%) [4] | % reduction of adult worms growth at day 49 after per os application of 400 mg/kg, TWR (%) [5] | adult worms at day 49, per os 400 mg/kg, DEAD WORM (%) [5] | Activity (%) po ([3]; 10 mg/kg) | Activity (%) sc ([3]; 10 mg/kg) | Survival (days) po ([3]; 10 mg/kg) | Survival (days) sc ([3]; 10 mg/kg)
C1CCN(C2CCC3(CC2)OOC2(O3)C3CC4CC(C3)CC2C4)CC1 (stereo not drawn) [OZ159] | 0.70 ng/mL (≈ 2.01 nM) | 0.94 ng/mL (≈ 2.71 nM) | 34% | 98% | 31% | 6.7 days | 9.0 days | 6.7 days | 19% | 19% |  |  |  |  |  | 
C1CC2(CCO1)OOC1(O2)C2CC3CC(C2)CC1C3 (stereo not drawn) [OZ22] | 0.32 ng/mL (≈ 1.2 nM) | 0.56 ng/mL (≈ 2.1 nM) | 35% | 99.6% |  | 6.0 days | 7.7 days |  | 76% | 75% |  |  |  |  |  | 
CC(C)(C)ON=C1CCC2(CC1)OOC1(O2)C2CC3CC(C2)CC1C3 (stereo not drawn) [OZ28] | 2.1 ng/mL (≈ 6.01 nM) | 2.5 ng/mL (≈ 7.15 nM) | 93% | 99.97% |  | 7.3 days | 12.3 days |  | 87% | 81% |  |  |  |  |  | 
CC1(C)CCC2(CC1)OOC1(O2)C2CC3CC(C2)CC1C3 (stereo not drawn) [OZ33] | 2.3 ng/mL (≈ 7.87 nM) | 3.5 ng/mL (≈ 12 nM) | 80% | 99.97% |  | 6.7 days | 11.7 days |  | 14% | 28% |  |  |  |  |  | 
O=S1(=O)CCC2(CC1)OOC1(O2)C2CC3CC(C2)CC1C3 (stereo not drawn) [OZ50] | 1.1 ng/mL (≈ 3.5 nM) | 1.2 ng/mL (≈ 3.82 nM) | 77% | 97% | 57% | 7.0 days | 7.3 days | 5.7 days |  |  | 12% | 4% |  |  |  | 
CC1(C)COC(c2ccc([C@H]3CC[C@]4(CC3)OOC3(O4)C4CC5CC(C4)CC3C5)cc2)=N1 (stereo partly drawn) [OZ154] | 5.0 ng/mL (≈ 11.4 nM) | 6.1 ng/mL (≈ 13.9 nM) |  |  | 81% |  |  | 8.7 days |  |  | 58% | 0% | 99.74% | 59% | 14.7 days | 7.7 days
O=C(O)C1CCC2(CC1)OOC1(O2)C2CC3CC(C2)CC1C3 (stereo not drawn) [OZ72] | 15 ng/mL (≈ 48.6 nM) | 13 ng/mL (≈ 42.2 nM) |  |  |  |  |  |  |  |  |  | 10% | 97% | 95% | 7.7 days | 6.7 days
O=C(CO)N1CCC2(CC1)OOC1(O2)C2CC3CC(C2)CC1C3 (stereo not drawn) [OZ83] | 0.30 ng/mL (≈ 0.928 nM) | 0.60 ng/mL (≈ 1.86 nM) | 92% | 99.8% | 78% | 7.0 days | 8.0 days | 6.3 days |  |  | 7% | 19% |  |  |  | 
CON=C1CC2CC3(CC2C1)OOC1(O3)C2CC3CC(C2)CC1C3 (stereo not drawn) [OZ37] |  |  | 83% | 99.98% |  | 6.7 days | 13 days |  | 53% | 63% |  |  |  |  |  | 
c1ccc(C2CCC3(CC2)OOC2(O3)C3CCCC2CCC3)cc1 (stereo not drawn) [OZ67] | >100/>100 ng/ml | >100/>100 ng/ml | 0/NA/0% | 0/NA/0% |  | 5.0/NA/5.0 days | 5.0/NA/5.0 days |  |  |  | 38% | 0% |  |  |  | 
OC12CC3CC(C1)C1(OOC4(CCC5(CC4)OCCO5)O1)C(C3)C2 (stereo not drawn) [OZ153] | 7.7 ng/mL (≈ 22.8 nM) | 19 ng/mL (≈ 56.1 nM) |  |  | 23% | 6.3 days |  | 7.0 days |  |  | No alive/dead worm* |  | 15% | 20% |  | 6.3 days
CC(C)(C)CC(=O)N1CCC2(CC1)OOC1(O2)C2CC3CC(C2)CC1C3 (stereo not drawn) [OZ111] | 0.92 ng/mL (≈ 2.53 nM) |  | 98% | 99.94% | 79% | 7.7 days | 8.3 days | 6.3 days | 68% | 71% |  |  |  |  |  | 
c1ccc(C2(c3ccccn3)OOC3(O2)C2CC4CC(C2)CC3C4)nc1 (stereo not drawn) [OZ81] | >100/>100 ng/ml | >100/>100 ng/ml | 0/NA/0% | 0/NA/0% |  | 5.3 days | 5.0 days |  |  |  | 28% | 0% |  |  |  | 
CC1(C)COC2(CCC3(CC2)OOC2(O3)C3CCCC2CCC3)OC1 (stereo not drawn) [OZ68] | 41 ng/mL (≈ 116 nM) | 49 ng/mL (≈ 139 nM) | 1% | 6% |  | 5.0 days | 5.3 days |  |  |  | 17% | 0% |  |  |  | 
O=C(OC[C@H]1CC[C@]2(CC1)OOC1(O2)C2CC3CC(C2)CC1C3)N1CCN(c2ccccc2)CC1 (stereo partly drawn) [OZ148] | 17 ng/mL (≈ 35.2 nM) | 16 ng/mL (≈ 33.2 nM) | 38% | 21% | 58% | 7.3 days | 6.3 days | 7.7 days |  |  | 25% | 0% |  |  |  | 
